Results published in article PMC3583342 (Clinical pharmacology and therapeutics, 2008).
Several values for one entry are separate records, joined by “and”; a condition that tells them apart may be missing. Equal values may be shown once. Read-outs that look alike come from different tables or passages of the source.

Tests used:
Oral = settings: human, in vivo, 11.2 mg; for AUC(0-t): AUC0-96, oral d5-methadone HCl 11.2 mg; for AUC(0-t) / AUC(0-inf) / Cmax: mean ± SD, n=12; for AUC(0-inf): AUC0-∞; for AUC(0-inf) / Cmax / Tmax: oral d5-methadone HCl 11.2 mg; for Tmax: median (range)
Intravenous = settings: human, in vivo, 6 mg, mean ± SD, n=12; for AUC(0-t): AUC0-96, IV methadone HCl 6.0 mg; for AUC(0-inf): AUC0-∞
P-gp = settings: oral fexofenadine P-gp probe, cited from earlier work
[1] = system: dark-adapted pupil diameter (miosis); assay: Methadone pharmacodynamics: dark-adapted pupil diameter change; type: in vivo, human; settings: for Maximum miosis / AUEC0-∞: mean ± SD, n=11; for AUEC0-∞: miosis
[2] = human, in vivo, po
[3] = cited from earlier work
[4] = 6.0 mg IV plus 11.2 mg oral methadone HCl
[5] = 6.0 mg IV plus 11.2 mg oral methadone HCl, acute ritonavir
[6] = 6.0 mg IV plus 11.2 mg oral methadone HCl, control
[7] = 6.0 mg IV plus 11.2 mg oral methadone HCl, steady-state ritonavir

For `CCC(=O)C(C[C@H](C)N(C)C)(c1ccccc1)c1ccccc1` [S-methadone], the AUC(0-t) (Oral; acute ritonavir) was 336 ± 170 ng·h/mL, the AUC(0-t) (Oral; control) was 580 ± 253 ng·h/mL and the AUC(0-t) (Oral; steady-state ritonavir) was 308 ± 161 ng·h/mL. The AUC(0-inf) (Oral; acute ritonavir) was 388 ± 233 ng·h/mL, the AUC(0-inf) (Oral; control) was 672 ± 335 ng·h/mL and the AUC(0-inf) (Oral; steady-state ritonavir) was 340 ± 205 ng·h/mL. The Cmax (Oral; acute ritonavir) was 13 ± 6 ng/mL, the Cmax (Oral; control) was 21 ± 8 ng/mL and the Tmax (Oral; acute ritonavir) was 4 h. The Tmax (Oral; control) was 2 h, the Tmax (Oral; steady-state ritonavir) was 4 h and the AUC(0-t) (Intravenous; acute ritonavir) was 215 ± 93 ng·h/mL. It also gave an AUC(0-t) (Intravenous; control) of 379 ± 164 ng·h/mL, an AUC(0-t) (Intravenous; steady-state ritonavir) of 187 ± 107 ng·h/mL and an AUC(0-inf) (Intravenous; IV methadone HCl 6.0 mg, acute ritonavir) of 241 ± 120 ng·h/mL. It also gave an AUC(0-inf) (Intravenous; IV methadone HCl 6.0 mg, steady-state ritonavir) of 211 ± 129 ng·h/mL and a Cmax (Intravenous; Cmax, IV methadone HCl 6.0 mg, steady-state ritonavir) of 57 ± 29 ng/mL.

In the case of `CC(C)c1nc(CN(C)C(=O)N[C@H](C(=O)N[C@@H](Cc2ccccc2)C[C@H](O)[C@H](Cc2ccccc2)NC(=O)OCc2cncs2)C(C)C)cs1` [ritonavir], the “increase in fexofenadine plasma AUC” value (P-gp; acute ritonavir) is listed as 2.8 fold and the “increase in fexofenadine plasma AUC” value (P-gp; steady-state ritonavir) is listed as 1.4 fold.

In the case of `CCC(=O)C(CC(C)N(C)C)(c1ccccc1)c1ccccc1` (stereo not shown) [methadone], the “time at which miosis was first detectable (first time point)” value [1, 4] is reported as 2 min, the “time of peak miosis effects” value [1, 4] is reported as 5 to 10 min and the Maximum miosis [1, 5] is reported as 5.1 ± 1.0 mm. The Maximum miosis [1, 6] was 4.3 ± 1.2 mm, the Maximum miosis [1, 7] was 4.2 ± 0.6 mm and the Emax ([1]; in vivo) was 3.0 ± 0.2 mm and 4.2 ± 0.2 ^b mm and 3.3 ± 0.1 ^c mm. For the same compound, the “AUEC0-∞” value [1, 5] was 135 ± 61 mm•hr, the “AUEC0-∞” value [1, 6] was 117 ± 61 mm•hr and the “AUEC0-∞” value [1, 7] was 91 ± 46 mm•hr. The “time of second plasma concentration peak” value [2] was 3 to 4 h, the “effect on plasma racemic methadone Cmax and AUC0-24” value ([3]; 100mg ritonavir alone for 7d) was “no effect” and the “decreases in methadone plasma concentrations after ritonavir initiation” value ([3]; patients on stable methadone doses, no withdrawal symptoms) was 30-50%.
